Experimental findings from ChEMBL document CHEMBL1201862, “PubChem BioAssay data set” (2004) are described below.

What all share (assay): NCI tumour cell line growth inhibition, 48 h
Assay [1] has as its system IGROV-1.
Assay [2] concerns KM12.
In assay [3] the test system is HOP-62.
Assay [4] concerns HT-29.
The test system of assay [5] is NCI-H522.
In assay [6] the test system is A498.
The subject of assay [7] is MDA-MB-435.
Assay [8] concerns UACC-257.
The test system of assay [9] is SK-MEL-28.
Assay [10] relates to SF-539.
Assay [11] relates to SR.
For assay [12], the system named is MDA-N.
Assay [13] deals with OVCAR-8.
The test system of assay [14] is A549.
The test system of assay [15] is U-251.
The test system of assay [16] is NCI-H460.
Assay [17] has as its system HCT-116.
In assay [18] the test system is HCT-15.
The subject of assay [19] is 786-0.

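Test compounds were applied to cells in 96-well plates for 48 hours at 5 doses. GI50 is the concentration that inhibits growth by half.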 Calls of active or inactive are those of the source. No stated cut-off is given here; in the data, active = GI50 up to about 1.1 µM and inactive = higher.

With `COc1cc(/C=C2\N=C(c3ccccc3)N(c3nc4ccccc4s3)C2=O)cc(OC)c1OC`, the GI50 is 28.6 µM (inactive) in assay [1]; 31.3 µM (inactive) in assay [2]; 24.4 µM (inactive) in assay [3]; 26.9 µM (inactive) in [4]; 13.4 µM (inactive) in assay [5]; 52.7 µM (inactive) in assay [6]. In addition, the GI50 was 15.6 µM (inactive) in assay [7]; > 100 µM (inactive) in assay [8]; 33 µM (inactive) in assay [9]; 32.3 µM (inactive) in assay [10]; 11.7 µM (inactive) in assay [11]; 15.3 µM (inactive) in [12]. Besides, the GI50 is 31 µM (inactive) in assay [13]; 29.6 µM (inactive) in [14]; 26.1 µM (inactive) in assay [15]; 65.5 µM (inactive) in [16]; 35 µM (inactive) in assay [17]; 30.3 µM in assay [18]. Further, the GI50 in assay [19] was 24.8 µM (inactive).

Take `COc1ccc2[nH]c(S(=O)(=O)N3CC(CCl)c4ccc(N)cc43)cc2c1` (centres undefined): the GI50 in assay [1] is 0.0547 µM (active); in assay [2] it was < 0.01 µM (active); in assay [3], 0.475 µM (active); in [4] it was 1.65 µM (inactive); in assay [5], < 0.01 µM (active); in assay [6], 11.2 µM (inactive). The GI50 in assay [7] is < 0.01 µM (active); in assay [8] it was 4.14 µM (inactive); in assay [9], 13 µM (inactive); in [10], 0.0478 µM (active); in [11] it was < 0.01 µM (active); in assay [12], < 0.01 µM (active). The GI50 in assay [13] is 0.266 µM (active); in [14] it was 0.146 µM (active); in [15], 0.4 µM (active); in assay [16] it was < 0.0189 µM (active); in assay [17], 0.0269 µM (active); in assay [18], under 0.0254 µM. Besides, the GI50 in assay [19] is 0.0771 µM (active).

As to `N#CSC#CCCC#CSC#N`, the GI50 in [1] was 20.3 µM (inactive); in assay [2], 17.7 µM (inactive); in assay [3], 19.3 µM (inactive); in assay [4], 21.3 µM (inactive); in assay [5], 2.2 µM (inactive); in assay [6] it was 20 µM (inactive). In addition, the GI50 in [7] was 23 µM (inactive); in assay [8] it was 16.9 µM (inactive); in assay [9], 29.4 µM (inactive); in assay [10], 19.5 µM (inactive); in [11], 7.21 µM (inactive); in assay [12], 18.2 µM (inactive). Also, the GI50 was 25.4 µM (inactive) in assay [13]; 19.6 µM (inactive) in [14]; 16.9 µM (inactive) in [15]; 22.2 µM (inactive) in assay [16]; 22.8 µM (inactive) in assay [17]; 18.2 µM in assay [18]. Besides, the GI50 in [19] is 20.3 µM (inactive).

Turning to `C[C@@H]1CC[C@H]2C(C)(C)[C@H]3C[C@@]12CC[C@@]3(C)O` [CEDROL], the GI50 in [1] is > 100 µM (inactive); in assay [2], 48.1 µM (inactive); in assay [3], > 100 µM (inactive); in [4], 36 µM (inactive); in assay [5] it was 45.9 µM (inactive); in [6], > 100 µM (inactive). Further, the GI50 in [7] is 92.5 µM (inactive); in [8], > 100 µM (inactive); in assay [9] it was 60 µM (inactive); in assay [10], > 100 µM (inactive); in assay [11], 18.7 µM (inactive); in assay [12], > 100 µM (inactive). Also, the GI50 in assay [13] was > 100 µM (inactive); in [14], 42.7 µM (inactive); in assay [15] it was > 10 µM (inactive); in [16], 18.2 µM (inactive); in assay [17], > 100 µM (inactive); in assay [18], 59.3 µM. The GI50 in assay [19] was 34.3 µM (inactive).

In the case of `Cc1cc(C)c(S(=O)(=O)N[C@@H](/C=C(\Br)CO)C(C)C)c(C)c1`, the GI50 in assay [1] is 29.9 µM (inactive); in assay [2] it was 33.6 µM (inactive); in assay [3], 56.5 µM (inactive); in assay [4], 31 µM (inactive); in assay [5], 17.7 µM (inactive); in [6] it was 20.7 µM (inactive). In addition, the GI50 in assay [7] is 17.3 µM (inactive); in assay [8], 21.5 µM (inactive); in assay [9] it was 24.9 µM (inactive); in assay [10], 31.8 µM (inactive); in [11], 25.1 µM (inactive); in [12], 26.1 µM (inactive). In addition, the GI50 was 33.7 µM (inactive) in [13]; 30.8 µM (inactive) in assay [14]; 25.4 µM (inactive) in [15]; 27.7 µM (inactive) in assay [16]; 33.4 µM (inactive) in [17]; 37.8 µM in assay [18]. Moreover, the GI50 in [19] is 30.5 µM (inactive).

As to `N/C(S)=N/N=C/c1ccc(N)cn1`, the GI50 in [1] was > 10 µM (inactive); in assay [2], 6.22 µM (inactive); in [3] it was 5.73 µM (inactive); in assay [4], 4.47 µM (inactive); in assay [5], 3.63 µM (inactive); in [6], > 8.15 µM (inactive). In addition, the GI50 was 5.9 µM (inactive) in assay [7]; > 10 µM (inactive) in assay [8]; > 10 µM (inactive) in assay [9]; 0.404 µM (active) in [10]; 3.67 µM (inactive) in [11]; > 6.59 µM (inactive) in assay [12]. Moreover, the GI50 in assay [13] is 3.18 µM (inactive); in assay [14], 3.54 µM (inactive); in assay [15] it was 4.06 µM (inactive); in assay [16], 3.09 µM (inactive); in [17], 3.98 µM (inactive); in [18], 5.87 µM. In assay [19], the GI50 was 2.43 µM (inactive).

Regarding `Cc1ccc2[nH]c3c(c2c1)C1CCC(C(C)(C)C)CC1C1C(=O)N(c2ccc4c(c2)OCO4)C(=O)C31` (centres undefined), the GI50 is 2.45 µM (inactive) in assay [1]; 5.25 µM (inactive) in [2]; 1.91 µM (inactive) in [3]; 4.51 µM (inactive) in assay [4]; 2.67 µM (inactive) in [5]; 1.83 µM (inactive) in assay [6]. Also, the GI50 in assay [7] was 7.21 µM (inactive); in assay [8], 9.68 µM (inactive); in [9] it was 5.61 µM (inactive); in assay [10] it was 1.35 µM (inactive); in assay [11], 1.91 µM (inactive); in assay [12], 5.41 µM (inactive). In addition, the GI50 in assay [13] is 1.97 µM (inactive); in assay [14], 2.31 µM (inactive); in [15], 2.1 µM (inactive); in assay [16] it was 1.78 µM (inactive); in assay [17], 2.34 µM (inactive); in assay [18], 5.21 µM. For the same compound, the GI50 in [19] is 1.63 µM (inactive).

For the compound `O=[N+]([O-])C(=C(Cl)Cl)C(Cl)=C(Cl)Cl`, the GI50 in assay [1] was 0.422 µM (active); in assay [2], 1.85 µM (inactive); in assay [3], 8.22 µM (inactive); in assay [4], 0.141 µM (active); in [5] it was < 0.01 µM (active); in [6], 3.63 µM (inactive). The GI50 in assay [7] is 0.314 µM (active); in [8] it was 0.166 µM (active); in [9], 0.105 µM (active); in assay [10], 1.45 µM (inactive); in assay [11], 0.13 µM (active); in [12], 0.206 µM (active). Further, the GI50 in [13] is 0.619 µM (active); in assay [14], 6.44 µM (inactive); in assay [15] it was 2.81 µM (inactive); in assay [16], 1.96 µM (inactive); in assay [17], 0.0929 µM (active); in assay [18], 0.156 µM. In addition, in [19], the GI50 was 0.0895 µM (active).

Turning to `COc1cc([C@H]2Oc3c(OC)cc(CCCO)cc3[C@@H]2CO)ccc1O` [DIHYDRODEHYDRODICONIFERY ALCOHOL], the GI50 was > 100 µM (inactive) in assay [1]; > 100 µM (inactive) in assay [2]; > 100 µM (inactive) in assay [3]; > 100 µM (inactive) in [4]; 69.2 µM (inactive) in assay [5]; 50.6 µM (inactive) in [6]. In addition, the GI50 in assay [7] was > 100 µM (inactive); in assay [8], 43.4 µM (inactive); in assay [9], > 100 µM (inactive); in assay [10], > 100 µM (inactive); in [11], > 100 µM (inactive); in assay [12], > 100 µM (inactive). Besides, the GI50 in [13] was > 100 µM (inactive); in assay [14] it was > 100 µM (inactive); in [15] it was > 100 µM (inactive); in [16] it was > 100 µM (inactive); in assay [17] it was > 100 µM (inactive); in assay [18], over 100 µM. For the same compound, in assay [19], the GI50 is > 100 µM (inactive).

Regarding `CCc1nc(N)nc(N)c1-c1ccc(Cl)cc1` [PYRIMETHAMINE], the GI50 was 9.86 µM (inactive) in assay [1]; 11.6 µM (inactive) in assay [2]; 13.4 µM (inactive) in [3]; 4.25 µM (inactive) in [4]; 22.5 µM (inactive) in [5]; 13.3 µM (inactive) in assay [6]. Moreover, the GI50 in [7] is 8.36 µM (inactive); in assay [8], 12.5 µM (inactive); in assay [9], > 66.7 µM (inactive); in assay [10] it was 20.7 µM (inactive); in assay [11], 4.24 µM (inactive); in [12], 4.83 µM (inactive). For the same compound, the GI50 is 5.79 µM (inactive) in assay [13]; 1.47 µM (inactive) in [14]; 9.75 µM (inactive) in assay [15]; 2.79 µM (inactive) in assay [16]; 6.14 µM (inactive) in assay [17]; 3.94 µM in [18]. Also, in assay [19], the GI50 is 4.59 µM (inactive).

`CC(C)c1ccc(O)c(=O)c(O)c1.CC(C)c1ccc(O)c(=O)cc1.CC(C)c1cccc(=O)c(O)c1.CC(C)c1ccccc(=O)c1O`: the GI50 in [1] was 1.36 µM (inactive); in assay [2], 2.87 µM (inactive); in assay [3] it was 1.24 µM (inactive); in [4] it was 0.509 µM (active); in assay [5], 0.456 µM (active); in assay [6], 2.06 µM (inactive). In addition, the GI50 in assay [7] was 2.1 µM (inactive); in [8], 0.322 µM (active); in assay [9], 2.05 µM (inactive); in [10], 0.598 µM (active); in assay [11], 0.262 µM (active); in assay [12], 3.32 µM (inactive). Also, the GI50 in [13] was 0.604 µM (active); in [14] it was 1.07 µM (active); in assay [15] it was 0.491 µM (active); in [16] it was 0.191 µM (active); in [17], 0.373 µM (active); in assay [18], 0.198 µM. The GI50 in assay [19] was 0.719 µM (active).
